Experimental findings from article PMC6522510 (Nature Communications, 2019) are described below.

What all share (set-up): species or system AML cell lines (8); Primary HTS, single concentration about 10 uM, Cell Titer Glo viability; log10 luminescence, per cent inhibition relative to cycloheximide control
What all share (conditions): 72 h, relative to cycloheximide control, log10 luminescence, inhibitor
Background: Cellular ATP, detected with luciferase, serves as a proxy for viable cell number.

For experiment [1], the system named is M07e.
The subject of experiment [2] is U937.
Experiment [3] relates to CHRF288-11.
Experiment [4] concerns CMS.
The subject of experiment [5] is CMK.
For experiment [6], the system named is ML-2.
For experiment [7], the system named is MV4-11.
In experiment [8] the test system is MOLM-13.

SMILES strings stand for the structures. Like-named read-outs stand apart in the source and are kept apart here.

Turning to `O=C(O)Cc1cccc2c(=O)c([N+](=O)[O-])c(-c3ccccc3[N+](=O)[O-])oc12` [SJ000772406-1, AMINOPEPTIDASE N INHIBITOR], in experiment [1], the M07e %inh was -0.1255%. Further, in experiment [2], the U937 %inh is -3.753%. Also, the CHRF288-11 %inh in experiment [3] was determined as 5.038%. The CMS %inh in experiment [4] was -0.7017%. Besides, the CMK %inh in experiment [5] is on record as -2.215%. Besides, in experiment [6], the ML-2 %inh amounted to 1.312%. In experiment [7], the MV4-11 %inh is recorded as -1.986%. Further, the MOLM-13 %inh in experiment [8] is -3.246%.

Consider `Nc1c(C(=O)c2cccc(C#CCN3CCOCC3)c2)cnn1-c1ccc(F)cc1` [SJ000580973-1], for which, in experiment [1], the M07e %inh is 5.913%. For the same compound, in experiment [2], the U937 %inh came to 6.28%. Also, in experiment [3], the CHRF288-11 %inh turned out to be 3.718%. Also, the CMS %inh in experiment [4] worked out at 0.1973%. The CMK %inh in experiment [5] stood at 37.5%. In addition, the ML-2 %inh in experiment [6] is 0.4746%. In experiment [7], the MV4-11 %inh came out at 1.084%. The MOLM-13 %inh in experiment [8] stood at 2.598%.

In the case of `Cn1c(=O)c(Oc2ccccc2F)cc2cnc(NC3CCOCC3)nc21` [SJ000581061-1], the M07e %inh in experiment [1] came out at 6.564%. In experiment [2], the U937 %inh was 1.19%. Besides, the CHRF288-11 %inh in experiment [3] is reported as 11.16%. The CMS %inh in experiment [4] was found to be 1.876%. The CMK %inh in experiment [5] is listed as -2.528%. Besides, the ML-2 %inh in experiment [6] was 3.823%. Further, the MV4-11 %inh in experiment [7] is 0.7758%. For the same compound, the MOLM-13 %inh in experiment [8] is -1.076%.

Consider `O=C1NC(=NCCc2ccccc2Cl)S/C1=C\c1ccc2ncccc2c1` [SJ000581034-1], for which, in experiment [1], the M07e %inh amounted to 0.7717%. In addition, in experiment [2], the U937 %inh came out at 0.6904%. Further, the CHRF288-11 %inh in experiment [3] is listed as -2.34%. The CMS %inh in experiment [4] is on record as 1.664%. Also, the CMK %inh in experiment [5] is recorded as -2.328%. For the same compound, the ML-2 %inh in experiment [6] came to 3.879%. Also, the MV4-11 %inh in experiment [7] was -0.3328%. The MOLM-13 %inh in experiment [8] is 1.218%.

For the compound `CCCCCS(=O)(=O)CCCCCCCCCCn1c(-c2ccc(O)cc2)c(C)c2cc(O)ccc21` [SJ000546504-1, ZK 164015], the M07e %inh in experiment [1] is given as 14.67%. In experiment [2], the U937 %inh came to 10.37%. For the same compound, the CHRF288-11 %inh in experiment [3] was determined as 8.284%. In experiment [4], the CMS %inh is reported as 7.105%. Moreover, the CMK %inh in experiment [5] stood at 21%. Also, the ML-2 %inh in experiment [6] was 14.83%. The MV4-11 %inh in experiment [7] is 19.87%. Moreover, in experiment [8], the MOLM-13 %inh is given as 28.37%.

On to `Fc1ccc(-c2ncn(C3CCNCC3)c2-c2ccnc(Oc3ccc(F)c(F)c3)n2)cc1` [SJ000573012-1, JB27026-232B1], for which, in experiment [1], the M07e %inh is -2.095%. Further, in experiment [2], the U937 %inh was -1.918%. In experiment [3], the CHRF288-11 %inh is reported as -0.6747%. In experiment [4], the CMS %inh worked out at 1.648%. Besides, in experiment [5], the CMK %inh turned out to be 0.6183%. Besides, the ML-2 %inh in experiment [6] came out at 1.308%. In addition, the MV4-11 %inh in experiment [7] is given as 1.825%. In experiment [8], the MOLM-13 %inh is -3.394%.

Regarding `C/C=C(/C(=C/C)c1ccc(O)cc1)c1ccc(O)cc1` [SJ000285735-4, DIENESTROL], the M07e %inh in experiment [1] (M07e %inh, 10 µM) is -0.9445%. The U937 %inh in experiment [2] (U937 %inh, 10 µM) is on record as 2.437%. The CHRF288-11 %inh in experiment [3] (CHRF288-11 %inh, 10 µM) is -2.974%. In addition, the CMS %inh in experiment [4] (CMS %inh, 10 µM) is reported as -3.971%. Besides, the CMK %inh in experiment [5] (CMK %inh, 10 µM) was determined as 4.084%. The ML-2 %inh in experiment [6] (ML-2 %inh, 10 µM) was 0.7684%. The MV4-11 %inh in experiment [7] (MV4-11 %inh, 10 µM) was -1.794%. Further, the MOLM-13 %inh in experiment [8] (MOLM-13 %inh, 10 µM) is recorded as 3.801%.

`COc1cc2ncn(-c3cc(OCc4ccccc4C(F)(F)F)c(C(C)=O)s3)c2cc1OC` [SJ000573292-1, U22436/134/1]: in experiment [1], the M07e %inh was -3.084%. The U937 %inh in experiment [2] is given as -1.322%. The CHRF288-11 %inh in experiment [3] is recorded as -3.203%. Moreover, the CMS %inh in experiment [4] came out at 0.7881%. Also, the CMK %inh in experiment [5] was -1.073%. Further, the ML-2 %inh in experiment [6] is -2.426%. For the same compound, the MV4-11 %inh in experiment [7] was -4.181%. For the same compound, the MOLM-13 %inh in experiment [8] was -1.507%.

As to `Cc1cc(-c2ccccn2)cc(C)c1/C=C/c1cncc(-c2nn[nH]n2)c1` [SJ000573354-1, U12068/128/1], the M07e %inh in experiment [1] is -1.071%. In experiment [2], the U937 %inh is 1.124%. Moreover, the CHRF288-11 %inh in experiment [3] is on record as -4.309%. Also, in experiment [4], the CMS %inh is on record as -3.491%. The CMK %inh in experiment [5] is 0.3268%. The ML-2 %inh in experiment [6] is recorded as -0.7476%. In addition, in experiment [7], the MV4-11 %inh is recorded as -0.7703%. For the same compound, in experiment [8], the MOLM-13 %inh was found to be 1.519%.

As for `Nc1nc(-c2ccc3c(c2)C(=Cc2cc(Br)c(O)c(Br)c2)C(=O)N3)cs1` [SJ000573294-1, U11298/118/1], the M07e %inh in experiment [1] came out at 2.045%. In experiment [2], the U937 %inh was -1.497%. Moreover, in experiment [3], the CHRF288-11 %inh is 13.11%. The CMS %inh in experiment [4] is on record as 1.564%. For the same compound, the CMK %inh in experiment [5] is given as -5.127%. In experiment [6], the ML-2 %inh came out at 0.7137%. Also, the MV4-11 %inh in experiment [7] is listed as -2.964%. For the same compound, the MOLM-13 %inh in experiment [8] was -2.176%.

For the compound `CC[C@H](C)[C@@H]1NC(=O)[C@H](Cc2ccc(O)cc2)NC(=O)[C@@H](N)CSSC[C@@H](C(=O)N2CCC[C@H]2C(=O)N[C@@H](CC(C)C)C(=O)NCC(N)=O)NC(=O)[C@H](CC(N)=O)NC(=O)[C@H](CCC(N)=O)NC1=O` [SJ000519020-1, OXYTOCIN], in experiment [1], the M07e %inh is reported as 0.04623%. Also, the U937 %inh in experiment [2] is listed as -1.829%. In addition, in experiment [3], the CHRF288-11 %inh was -2.465%. Moreover, the CMS %inh in experiment [4] was -0.7099%. Besides, the CMK %inh in experiment [5] was -2.47%. The ML-2 %inh in experiment [6] is on record as -0.7579%. Moreover, the MV4-11 %inh in experiment [7] is 1.343%. In addition, in experiment [8], the MOLM-13 %inh is reported as -2.698%.

For `N#Cc1ccc(Oc2nccc(-c3c(-c4ccc(F)cc4)ncn3C3CCNCC3)n2)cc1` [SJ000573110-1, JB27026-057C1], in experiment [1], the M07e %inh is 7.948%. The U937 %inh in experiment [2] is -2.466%. Also, the CHRF288-11 %inh in experiment [3] is 0.2466%. Also, in experiment [4], the CMS %inh is listed as -2.544%. For the same compound, the CMK %inh in experiment [5] was -0.241%. Besides, the ML-2 %inh in experiment [6] worked out at 1.756%. In addition, in experiment [7], the MV4-11 %inh is -1.125%. In addition, in experiment [8], the MOLM-13 %inh stood at 1.125%.

Consider `Nc1ccc(C#Cc2cncnc2Nc2ccc(OCc3cccc(F)c3)c(Cl)c2)cc1` [SJ000573041-1, U17810/18/1], for which the M07e %inh in experiment [1] was found to be 8.047%. The U937 %inh in experiment [2] is listed as 3.684%. For the same compound, in experiment [3], the CHRF288-11 %inh came out at 2.448%. In addition, in experiment [4], the CMS %inh stood at 3.795%. Also, in experiment [5], the CMK %inh stood at 13.47%. Further, in experiment [6], the ML-2 %inh came out at 5.257%. Moreover, the MV4-11 %inh in experiment [7] stood at 4.494%. In addition, the MOLM-13 %inh in experiment [8] is 7.505%.

In the case of `CNC(=O)c1cncc(/C=C/c2ccccc2Cl)c1` [SJ000573070-1, U12068/61/1], the M07e %inh in experiment [1] worked out at 31.9%. Besides, the U937 %inh in experiment [2] is given as 0.1459%. Further, the CHRF288-11 %inh in experiment [3] turned out to be 33.2%. Moreover, the CMS %inh in experiment [4] was -0.2342%. Further, the CMK %inh in experiment [5] was determined as 93.63%. Further, the ML-2 %inh in experiment [6] was 26.34%. Also, the MV4-11 %inh in experiment [7] was -1.892%. In addition, in experiment [8], the MOLM-13 %inh was found to be 4.101%.

In the case of `CCCCNc1cc(C(=O)O)cc(S(N)(=O)=O)c1Oc1ccccc1` [SJ000285893-8, BUMETANIDE], the M07e %inh in experiment [1] (M07e %inh, 10 µM) was 45.31%. In experiment [2] (U937 %inh, 10 µM), the U937 %inh is given as 0.292%. Moreover, the CHRF288-11 %inh in experiment [3] (CHRF288-11 %inh, 10 µM) is on record as -1.756%. The CMS %inh in experiment [4] (CMS %inh, 10 µM) is 2.258%. For the same compound, the CMK %inh in experiment [5] (CMK %inh, 10 µM) is listed as -0.903%. For the same compound, the ML-2 %inh in experiment [6] (ML-2 %inh, 10 µM) is -0.3091%. The MV4-11 %inh in experiment [7] (MV4-11 %inh, 10 µM) came out at 2.839%. Besides, the MOLM-13 %inh in experiment [8] (MOLM-13 %inh, 10 µM) was found to be 2.916%.

In the case of `O=C1NC(=O)C(c2ccccc2Cl)=C1Nc1cccc(O)c1` [SJ000573183-1, BS98679-018A5], the M07e %inh in experiment [1] is 51.61%. Also, the U937 %inh in experiment [2] amounted to 51.74%. Further, the CHRF288-11 %inh in experiment [3] is given as 41.21%. In addition, in experiment [4], the CMS %inh came out at 26.93%. The CMK %inh in experiment [5] is 56.79%. The ML-2 %inh in experiment [6] worked out at 39.83%. In experiment [7], the MV4-11 %inh was 22.8%. Also, the MOLM-13 %inh in experiment [8] stood at 67.3%.
